In the kinase profiling compilation of Christmann-Franck et al. (2016):

Tests used:
Assay in all cases: KINOMEscan competition binding
Settings in all cases: compound 10.0 µM
[1] = target: AXL (human) (UniProt P30530)
[2] = target: BRSK2 (human) (UniProt Q8IWQ3)
[3] = target: CDK14 (human) (UniProt O94921)
[4] = target: CDK5 (human) (UniProt Q00535)
[5] = target: CDK9 (human) (UniProt P50750)
[6] = target: CLK2 (human) (UniProt P49760)
[7] = target: CSNK1E (human) (UniProt P49674)
[8] = target: EPHA2 (human) (UniProt P29317)
[9] = target: EPHA8 (human) (UniProt P29322)
[10] = target: IKBKB (human) (UniProt O14920)
[11] = target: IKBKE (human) (UniProt Q14164)
[12] = target: JAK1 JH1 catalytic (human) (UniProt P23458)
[13] = target: LCK (human) (UniProt P06239)
[14] = target: LYN (human) (UniProt P07948)
[15] = target: MAP2K2 (human) (UniProt P36507)
[16] = target: MAP3K3 (human) (UniProt Q99759)
[17] = target: MAP4K5 (human) (UniProt Q9Y4K4)
[18] = target: MAPK12 (human) (UniProt P53778)
[19] = target: MAPK3 (human) (UniProt P27361)
[20] = target: MAPKAPK5 (human) (UniProt Q8IW41)
[21] = target: MARK2 (human) (UniProt Q7KZI7)
[22] = target: MYO3A (human) (UniProt Q8NEV4)
[23] = target: NEK5 (human) (UniProt Q6P3R8)
[24] = target: NUAK2 (human) (UniProt Q9H093)
[25] = target: PAK3 (human) (UniProt O75914)
[26] = target: PDGFRB (human) (UniProt P09619)
[27] = target: PDPK1 (human) (UniProt O15530)
[28] = target: PIM2 (human) (UniProt Q9P1W9)
[29] = target: PLK4 (human) (UniProt O00444)
[30] = target: PRKD1 (human) (UniProt Q15139)
[31] = target: RIPK1 (human) (UniProt Q13546)
[32] = target: RIPK2 (human) (UniProt O43353)
[33] = target: RPS6KA1 KD2 (human) (UniProt Q15418)
[34] = target: RPS6KA2 KD2 (human) (UniProt Q15349)
[35] = target: SLK (human) (UniProt Q9H2G2)
[36] = target: SRMS (human) (UniProt Q9H3Y6)
[37] = target: STK25 (human) (UniProt O00506)
[38] = target: TEK (human) (UniProt Q02763)
[39] = target: TNIK (human) (UniProt Q9UKE5)
[40] = target: TNNI3K (human) (UniProt Q59H18)

Sequence of LYN (human) (P07948 whole entry, looked up): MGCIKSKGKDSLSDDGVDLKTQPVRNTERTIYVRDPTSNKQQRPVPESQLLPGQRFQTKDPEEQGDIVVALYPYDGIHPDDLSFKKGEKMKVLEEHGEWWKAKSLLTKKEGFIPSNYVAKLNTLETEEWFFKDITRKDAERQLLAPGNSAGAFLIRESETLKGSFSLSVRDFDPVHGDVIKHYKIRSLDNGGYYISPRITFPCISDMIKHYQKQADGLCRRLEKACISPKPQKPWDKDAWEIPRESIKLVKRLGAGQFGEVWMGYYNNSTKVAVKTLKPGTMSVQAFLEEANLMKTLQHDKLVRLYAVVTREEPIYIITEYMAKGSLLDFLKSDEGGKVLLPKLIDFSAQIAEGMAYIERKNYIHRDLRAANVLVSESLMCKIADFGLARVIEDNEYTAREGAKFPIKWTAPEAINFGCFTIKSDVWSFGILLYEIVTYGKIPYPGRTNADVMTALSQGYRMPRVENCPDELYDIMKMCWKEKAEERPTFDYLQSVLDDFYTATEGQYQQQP
Sequence of IKBKE (human) (Q14164 whole entry, looked up): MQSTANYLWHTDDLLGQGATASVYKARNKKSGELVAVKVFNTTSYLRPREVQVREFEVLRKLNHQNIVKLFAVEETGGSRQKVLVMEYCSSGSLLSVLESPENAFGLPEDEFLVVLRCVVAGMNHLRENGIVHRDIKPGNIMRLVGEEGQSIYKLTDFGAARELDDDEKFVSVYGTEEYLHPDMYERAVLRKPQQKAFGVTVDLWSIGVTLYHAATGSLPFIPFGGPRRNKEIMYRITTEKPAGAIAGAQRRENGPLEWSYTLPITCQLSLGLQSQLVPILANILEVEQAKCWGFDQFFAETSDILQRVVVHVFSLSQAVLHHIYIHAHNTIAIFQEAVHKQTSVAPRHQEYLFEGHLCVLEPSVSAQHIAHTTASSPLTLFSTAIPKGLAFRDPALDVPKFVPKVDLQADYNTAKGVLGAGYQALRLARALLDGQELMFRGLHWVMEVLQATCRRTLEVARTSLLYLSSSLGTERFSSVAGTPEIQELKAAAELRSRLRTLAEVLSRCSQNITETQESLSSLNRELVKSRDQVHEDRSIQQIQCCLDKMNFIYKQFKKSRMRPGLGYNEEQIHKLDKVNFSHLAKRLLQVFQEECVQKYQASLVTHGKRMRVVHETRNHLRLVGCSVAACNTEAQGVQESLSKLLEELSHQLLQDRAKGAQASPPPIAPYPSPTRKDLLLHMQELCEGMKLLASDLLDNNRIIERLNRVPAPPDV
Sequence of AXL (human) (P30530 whole entry, looked up): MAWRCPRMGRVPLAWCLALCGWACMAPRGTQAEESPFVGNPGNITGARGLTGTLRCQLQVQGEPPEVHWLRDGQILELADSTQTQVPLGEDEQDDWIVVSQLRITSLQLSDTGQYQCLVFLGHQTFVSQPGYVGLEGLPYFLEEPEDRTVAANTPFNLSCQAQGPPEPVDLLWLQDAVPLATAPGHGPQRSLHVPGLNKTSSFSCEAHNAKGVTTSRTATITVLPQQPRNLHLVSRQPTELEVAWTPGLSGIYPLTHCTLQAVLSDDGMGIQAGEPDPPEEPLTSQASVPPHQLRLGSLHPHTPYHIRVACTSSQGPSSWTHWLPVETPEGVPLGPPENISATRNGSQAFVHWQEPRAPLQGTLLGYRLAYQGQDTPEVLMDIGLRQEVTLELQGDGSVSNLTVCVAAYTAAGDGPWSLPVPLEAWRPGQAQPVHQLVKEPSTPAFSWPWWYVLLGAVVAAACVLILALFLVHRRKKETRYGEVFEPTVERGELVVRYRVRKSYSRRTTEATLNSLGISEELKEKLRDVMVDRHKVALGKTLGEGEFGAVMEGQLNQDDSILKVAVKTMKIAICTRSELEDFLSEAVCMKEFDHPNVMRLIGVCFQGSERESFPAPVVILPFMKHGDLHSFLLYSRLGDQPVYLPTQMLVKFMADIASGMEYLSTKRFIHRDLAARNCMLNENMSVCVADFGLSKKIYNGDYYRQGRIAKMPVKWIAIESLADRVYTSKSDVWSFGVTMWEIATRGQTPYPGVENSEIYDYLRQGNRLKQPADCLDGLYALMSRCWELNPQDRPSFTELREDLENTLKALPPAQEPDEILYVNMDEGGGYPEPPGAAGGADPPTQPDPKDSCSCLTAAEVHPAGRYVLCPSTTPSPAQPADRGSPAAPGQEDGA
Sequence of PIM2 (human) (Q9P1W9 whole entry, looked up): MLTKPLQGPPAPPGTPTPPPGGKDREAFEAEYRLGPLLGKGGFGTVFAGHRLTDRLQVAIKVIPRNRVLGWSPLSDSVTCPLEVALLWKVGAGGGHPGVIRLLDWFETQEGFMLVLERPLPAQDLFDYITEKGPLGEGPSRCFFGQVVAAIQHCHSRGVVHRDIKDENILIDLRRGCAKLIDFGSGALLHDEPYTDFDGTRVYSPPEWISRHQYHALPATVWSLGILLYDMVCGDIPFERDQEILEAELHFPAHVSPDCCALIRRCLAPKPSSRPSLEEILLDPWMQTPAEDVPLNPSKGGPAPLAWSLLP
Sequence of MAPK3 (human) (P27361 whole entry, looked up): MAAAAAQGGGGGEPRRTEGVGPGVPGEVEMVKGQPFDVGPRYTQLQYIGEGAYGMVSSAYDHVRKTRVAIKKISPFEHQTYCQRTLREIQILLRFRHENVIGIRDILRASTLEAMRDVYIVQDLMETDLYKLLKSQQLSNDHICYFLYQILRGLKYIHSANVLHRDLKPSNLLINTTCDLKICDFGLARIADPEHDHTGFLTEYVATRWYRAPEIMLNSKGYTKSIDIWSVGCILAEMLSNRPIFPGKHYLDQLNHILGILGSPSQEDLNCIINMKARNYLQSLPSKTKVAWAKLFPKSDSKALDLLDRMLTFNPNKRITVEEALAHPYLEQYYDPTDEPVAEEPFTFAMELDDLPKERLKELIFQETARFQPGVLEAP
Sequence of MAP4K5 (human) (Q9Y4K4 whole entry, looked up): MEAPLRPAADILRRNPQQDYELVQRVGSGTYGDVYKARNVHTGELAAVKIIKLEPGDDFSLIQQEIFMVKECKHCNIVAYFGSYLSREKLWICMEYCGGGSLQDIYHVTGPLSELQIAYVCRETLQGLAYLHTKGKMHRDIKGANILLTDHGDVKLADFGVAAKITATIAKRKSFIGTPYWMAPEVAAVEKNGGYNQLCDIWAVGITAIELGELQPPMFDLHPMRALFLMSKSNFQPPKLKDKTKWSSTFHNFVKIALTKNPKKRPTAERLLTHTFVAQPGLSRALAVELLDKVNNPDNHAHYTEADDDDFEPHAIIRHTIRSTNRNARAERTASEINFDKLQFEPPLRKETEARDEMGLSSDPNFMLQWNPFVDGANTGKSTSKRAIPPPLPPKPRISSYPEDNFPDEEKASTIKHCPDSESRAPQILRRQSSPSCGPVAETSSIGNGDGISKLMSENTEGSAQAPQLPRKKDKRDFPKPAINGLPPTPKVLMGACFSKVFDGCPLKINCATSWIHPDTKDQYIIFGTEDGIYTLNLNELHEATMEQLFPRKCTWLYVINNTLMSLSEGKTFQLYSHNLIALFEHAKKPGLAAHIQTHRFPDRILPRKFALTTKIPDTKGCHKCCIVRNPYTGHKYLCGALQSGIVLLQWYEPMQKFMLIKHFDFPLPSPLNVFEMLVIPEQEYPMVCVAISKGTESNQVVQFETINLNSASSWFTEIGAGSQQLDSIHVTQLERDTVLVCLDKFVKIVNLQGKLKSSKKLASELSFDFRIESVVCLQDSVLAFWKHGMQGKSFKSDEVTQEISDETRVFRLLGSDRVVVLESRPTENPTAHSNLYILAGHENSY
Sequence of PDPK1 (human) (O15530 whole entry, looked up): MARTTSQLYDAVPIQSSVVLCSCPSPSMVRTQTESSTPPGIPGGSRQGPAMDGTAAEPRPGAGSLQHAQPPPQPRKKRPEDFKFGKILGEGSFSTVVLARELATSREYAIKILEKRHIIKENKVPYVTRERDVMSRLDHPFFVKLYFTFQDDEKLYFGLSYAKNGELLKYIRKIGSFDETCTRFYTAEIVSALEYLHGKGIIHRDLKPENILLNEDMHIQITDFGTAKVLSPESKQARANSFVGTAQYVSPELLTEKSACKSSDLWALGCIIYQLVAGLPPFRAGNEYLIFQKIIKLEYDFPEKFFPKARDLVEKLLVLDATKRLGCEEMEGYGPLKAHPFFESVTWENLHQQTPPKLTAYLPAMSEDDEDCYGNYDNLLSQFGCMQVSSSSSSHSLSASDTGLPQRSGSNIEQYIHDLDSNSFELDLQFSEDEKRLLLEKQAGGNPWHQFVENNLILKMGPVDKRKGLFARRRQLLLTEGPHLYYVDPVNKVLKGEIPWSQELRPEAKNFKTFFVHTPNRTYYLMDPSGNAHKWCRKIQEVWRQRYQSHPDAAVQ
Sequence of PAK3 (human) (O75914 whole entry, looked up): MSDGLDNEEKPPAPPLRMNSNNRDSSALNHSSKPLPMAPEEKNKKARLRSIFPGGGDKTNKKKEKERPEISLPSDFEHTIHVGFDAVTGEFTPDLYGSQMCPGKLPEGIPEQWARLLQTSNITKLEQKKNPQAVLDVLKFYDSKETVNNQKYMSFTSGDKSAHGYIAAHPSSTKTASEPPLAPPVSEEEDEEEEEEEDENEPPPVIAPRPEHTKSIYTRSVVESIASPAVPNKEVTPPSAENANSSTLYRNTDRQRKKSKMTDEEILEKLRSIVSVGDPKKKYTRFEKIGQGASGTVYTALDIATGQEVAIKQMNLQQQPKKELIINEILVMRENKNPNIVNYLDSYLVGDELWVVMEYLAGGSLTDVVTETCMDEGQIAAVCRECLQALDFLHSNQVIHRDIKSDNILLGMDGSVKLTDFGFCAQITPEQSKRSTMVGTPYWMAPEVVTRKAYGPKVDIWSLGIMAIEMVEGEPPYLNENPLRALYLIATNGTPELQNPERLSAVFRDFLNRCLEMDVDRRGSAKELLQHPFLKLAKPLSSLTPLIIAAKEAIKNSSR

SMILES | kinase still bound, per cent of control [1] | kinase still bound, per cent of control [2] | kinase still bound, per cent of control [3] | kinase still bound, per cent of control [4] | kinase still bound, per cent of control [5] | kinase still bound, per cent of control [6] | kinase still bound, per cent of control [7] | kinase still bound, per cent of control [8] | kinase still bound, per cent of control [9] | kinase still bound, per cent of control [10] | kinase still bound, per cent of control [11] | kinase still bound, per cent of control [12] | kinase still bound, per cent of control [13] | kinase still bound, per cent of control [14] | kinase still bound, per cent of control [15] | kinase still bound, per cent of control [16] | kinase still bound, per cent of control [17] | kinase still bound, per cent of control [18] | kinase still bound, per cent of control [19] | kinase still bound, per cent of control [20] | also measured
Cc1cc([C@@H](C)Nc2ccccc2C(=O)O)c2nc(N3CCOCC3)cc(=O)n2c1 | 86% | 100% | 100% | 100% | 100% | 70% | 98% | 70% | 96% | 90% | 85% | 100% | 97% | 99% | 100% | 87% | 96% | 94% | 95% | 100% | kinase still bound, per cent of control [21]: 90%; kinase still bound, per cent of control [22]: 97%; kinase still bound, per cent of control [23]: 100%; kinase still bound, per cent of control [24]: 84%; kinase still bound, per cent of control [25]: 98%; kinase still bound, per cent of control [26]: 100%; kinase still bound, per cent of control [27]: 100%; kinase still bound, per cent of control [28]: 70%; kinase still bound, per cent of control [29]: 100%; kinase still bound, per cent of control [30]: 89%; kinase still bound, per cent of control [31]: 100%; kinase still bound, per cent of control [32]: 94%; kinase still bound, per cent of control [33]: 84%; kinase still bound, per cent of control [34]: 98%; kinase still bound, per cent of control [35]: 100%; kinase still bound, per cent of control [36]: 63%; kinase still bound, per cent of control [37]: 76%; kinase still bound, per cent of control [38]: 100%; kinase still bound, per cent of control [39]: 98%; kinase still bound, per cent of control [40]: 88%
CCN1CCN(Cc2ccc(Nc3ncc4c(n3)N(C)c3ccccc3C(=O)N4C)cc2C(F)(F)F)CC1 | 11% | 42% | 100% | 84% | 100% | 39% | 45% | 83% | 100% | 100% | 73% | 93% | 5% | 61% | 89% | 0.65% | 35% | 97% | 99% | 100% | kinase still bound, per cent of control [21]: 40%; kinase still bound, per cent of control [22]: 88%; kinase still bound, per cent of control [23]: 77%; kinase still bound, per cent of control [24]: 6.6%; kinase still bound, per cent of control [25]: 9.4%; kinase still bound, per cent of control [26]: 56%; kinase still bound, per cent of control [27]: 100%; kinase still bound, per cent of control [28]: 30%; kinase still bound, per cent of control [29]: 0.1%; kinase still bound, per cent of control [30]: 17%; kinase still bound, per cent of control [31]: 24%; kinase still bound, per cent of control [32]: 6.4%; kinase still bound, per cent of control [33]: 23%; kinase still bound, per cent of control [34]: 32%; kinase still bound, per cent of control [35]: 2.4%; kinase still bound, per cent of control [36]: 54%; kinase still bound, per cent of control [37]: 47%; kinase still bound, per cent of control [38]: 85%; kinase still bound, per cent of control [39]: 100%; kinase still bound, per cent of control [40]: 78%
Cc1ccc(C(=O)Nc2cccc(C(F)(F)F)c2)cc1Nc1cncc(C(N)=O)c1 | 100% | 100% | 100% | 100% | 100% | 100% | 100% | 2.2% | 0.35% | 100% | 100% | 100% | 1.9% | 9.4% | 100% | 100% | 100% | 100% | 100% | 100% | kinase still bound, per cent of control [21]: 100%; kinase still bound, per cent of control [22]: 100%; kinase still bound, per cent of control [23]: 100%; kinase still bound, per cent of control [24]: 100%; kinase still bound, per cent of control [25]: 100%; kinase still bound, per cent of control [26]: 0.05%; kinase still bound, per cent of control [27]: 100%; kinase still bound, per cent of control [28]: 100%; kinase still bound, per cent of control [29]: 100%; kinase still bound, per cent of control [30]: 100%; kinase still bound, per cent of control [31]: 100%; kinase still bound, per cent of control [32]: 100%; kinase still bound, per cent of control [33]: 100%; kinase still bound, per cent of control [34]: 100%; kinase still bound, per cent of control [35]: 100%; kinase still bound, per cent of control [36]: 100%; kinase still bound, per cent of control [37]: 100%; kinase still bound, per cent of control [38]: 100%; kinase still bound, per cent of control [39]: 100%; kinase still bound, per cent of control [40]: 12%
